Measurements reported in article PMC3914206.

What was measured:
Assay type in all cases: binding
panel of 442 kinases [1] = molecular target: T1, panel of 442 kinases (Homo sapiens, UniProt Q9UKE5); conditions: kinase TNIK; compound concentration 10 µM
T1 construct: purchased KINOMEscan
Text: (§1) We assessed the selectivity of members of this scaffold using the KINOMEscan methodology across a near comprehensive panel of 442 kinases [[18,27]].

panel of 442 kinases [2] = molecular target: T2, panel of 442 kinases (Homo sapiens, UniProt O95819); conditions: Compound Concentration 10 µM
T2 construct: purchased KINOMEscan
Text: as §1

panel of 442 kinases [3] = molecular target: T3, panel of 442 kinases (Homo sapiens, UniProt Q86V86); conditions: Compound Concentration 10 µM
T3 construct: purchased KINOMEscan
Text: as §1

panel of 442 kinases [4] = molecular target: T4, panel of 442 kinases (Homo sapiens, UniProt P42336); conditions: Compound Concentration 10 µM
T4 construct: purchased KINOMEscan
Text: as §1

T1 sequence (Q9UKE5 whole entry): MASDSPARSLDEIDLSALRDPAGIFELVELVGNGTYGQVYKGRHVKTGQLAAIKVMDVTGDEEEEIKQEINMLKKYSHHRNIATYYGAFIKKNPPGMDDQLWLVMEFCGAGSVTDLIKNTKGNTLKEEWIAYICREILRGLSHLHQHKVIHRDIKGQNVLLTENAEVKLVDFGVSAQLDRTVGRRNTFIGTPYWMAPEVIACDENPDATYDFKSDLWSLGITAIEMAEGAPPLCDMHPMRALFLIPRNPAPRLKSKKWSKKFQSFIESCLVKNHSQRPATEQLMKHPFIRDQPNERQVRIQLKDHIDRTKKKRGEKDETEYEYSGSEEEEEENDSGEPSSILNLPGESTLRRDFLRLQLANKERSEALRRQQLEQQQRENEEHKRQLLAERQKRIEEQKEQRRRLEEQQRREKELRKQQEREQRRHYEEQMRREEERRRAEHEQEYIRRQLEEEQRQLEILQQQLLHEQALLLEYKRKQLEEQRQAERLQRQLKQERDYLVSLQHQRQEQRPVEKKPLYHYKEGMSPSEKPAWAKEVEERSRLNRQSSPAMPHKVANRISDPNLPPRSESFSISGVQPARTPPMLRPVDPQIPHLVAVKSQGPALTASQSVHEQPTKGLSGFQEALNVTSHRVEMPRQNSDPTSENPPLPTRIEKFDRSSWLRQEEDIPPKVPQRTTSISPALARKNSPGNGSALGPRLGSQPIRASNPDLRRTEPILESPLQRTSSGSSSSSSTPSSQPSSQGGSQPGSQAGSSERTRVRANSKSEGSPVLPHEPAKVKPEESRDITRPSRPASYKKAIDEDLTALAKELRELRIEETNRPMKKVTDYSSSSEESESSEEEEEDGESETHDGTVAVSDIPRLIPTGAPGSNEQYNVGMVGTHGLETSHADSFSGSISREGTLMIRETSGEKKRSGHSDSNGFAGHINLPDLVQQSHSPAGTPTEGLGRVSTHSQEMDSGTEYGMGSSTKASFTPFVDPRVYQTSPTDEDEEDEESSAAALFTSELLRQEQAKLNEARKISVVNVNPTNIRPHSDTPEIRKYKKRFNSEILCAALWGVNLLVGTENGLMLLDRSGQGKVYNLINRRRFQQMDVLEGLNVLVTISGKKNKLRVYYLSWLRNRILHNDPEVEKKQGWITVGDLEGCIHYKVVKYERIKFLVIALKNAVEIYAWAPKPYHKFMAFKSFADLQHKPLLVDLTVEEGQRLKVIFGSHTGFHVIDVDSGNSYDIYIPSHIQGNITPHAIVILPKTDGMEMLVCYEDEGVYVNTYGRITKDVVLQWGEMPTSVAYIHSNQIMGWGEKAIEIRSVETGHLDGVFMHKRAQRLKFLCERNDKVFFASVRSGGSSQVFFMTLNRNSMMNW
T2 sequence (O95819 whole entry): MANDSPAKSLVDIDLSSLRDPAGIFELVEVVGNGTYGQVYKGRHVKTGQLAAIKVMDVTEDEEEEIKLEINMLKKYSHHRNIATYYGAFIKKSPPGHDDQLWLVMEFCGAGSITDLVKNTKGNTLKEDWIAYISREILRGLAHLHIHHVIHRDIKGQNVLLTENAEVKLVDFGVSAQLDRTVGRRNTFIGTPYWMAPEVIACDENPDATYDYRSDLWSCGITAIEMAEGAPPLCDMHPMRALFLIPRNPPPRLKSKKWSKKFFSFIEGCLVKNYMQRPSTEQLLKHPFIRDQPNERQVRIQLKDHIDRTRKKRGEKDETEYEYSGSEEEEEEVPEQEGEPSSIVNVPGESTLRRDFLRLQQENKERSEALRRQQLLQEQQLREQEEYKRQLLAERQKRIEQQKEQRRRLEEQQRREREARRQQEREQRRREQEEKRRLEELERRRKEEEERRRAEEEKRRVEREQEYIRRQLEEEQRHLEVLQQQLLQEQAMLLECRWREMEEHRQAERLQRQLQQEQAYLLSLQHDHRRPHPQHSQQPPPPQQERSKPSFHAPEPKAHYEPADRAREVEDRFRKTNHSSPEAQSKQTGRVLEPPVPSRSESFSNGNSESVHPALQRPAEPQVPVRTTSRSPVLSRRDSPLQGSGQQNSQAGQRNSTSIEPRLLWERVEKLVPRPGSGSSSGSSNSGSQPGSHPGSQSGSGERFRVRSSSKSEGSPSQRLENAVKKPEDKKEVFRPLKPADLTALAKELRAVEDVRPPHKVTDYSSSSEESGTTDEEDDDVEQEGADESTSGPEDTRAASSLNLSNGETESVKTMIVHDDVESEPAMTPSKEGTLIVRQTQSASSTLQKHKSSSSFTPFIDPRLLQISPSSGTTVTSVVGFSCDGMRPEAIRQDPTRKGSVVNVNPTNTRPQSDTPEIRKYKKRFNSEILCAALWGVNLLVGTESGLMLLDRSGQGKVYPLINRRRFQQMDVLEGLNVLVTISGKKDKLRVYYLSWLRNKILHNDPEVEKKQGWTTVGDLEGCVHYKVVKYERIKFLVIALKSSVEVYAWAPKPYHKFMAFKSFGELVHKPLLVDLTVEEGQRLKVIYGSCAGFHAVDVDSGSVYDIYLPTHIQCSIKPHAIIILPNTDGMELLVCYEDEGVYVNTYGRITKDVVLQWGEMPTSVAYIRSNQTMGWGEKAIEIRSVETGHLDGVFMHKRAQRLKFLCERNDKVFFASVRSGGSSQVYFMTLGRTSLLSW
T4 sequence (P42336 whole entry): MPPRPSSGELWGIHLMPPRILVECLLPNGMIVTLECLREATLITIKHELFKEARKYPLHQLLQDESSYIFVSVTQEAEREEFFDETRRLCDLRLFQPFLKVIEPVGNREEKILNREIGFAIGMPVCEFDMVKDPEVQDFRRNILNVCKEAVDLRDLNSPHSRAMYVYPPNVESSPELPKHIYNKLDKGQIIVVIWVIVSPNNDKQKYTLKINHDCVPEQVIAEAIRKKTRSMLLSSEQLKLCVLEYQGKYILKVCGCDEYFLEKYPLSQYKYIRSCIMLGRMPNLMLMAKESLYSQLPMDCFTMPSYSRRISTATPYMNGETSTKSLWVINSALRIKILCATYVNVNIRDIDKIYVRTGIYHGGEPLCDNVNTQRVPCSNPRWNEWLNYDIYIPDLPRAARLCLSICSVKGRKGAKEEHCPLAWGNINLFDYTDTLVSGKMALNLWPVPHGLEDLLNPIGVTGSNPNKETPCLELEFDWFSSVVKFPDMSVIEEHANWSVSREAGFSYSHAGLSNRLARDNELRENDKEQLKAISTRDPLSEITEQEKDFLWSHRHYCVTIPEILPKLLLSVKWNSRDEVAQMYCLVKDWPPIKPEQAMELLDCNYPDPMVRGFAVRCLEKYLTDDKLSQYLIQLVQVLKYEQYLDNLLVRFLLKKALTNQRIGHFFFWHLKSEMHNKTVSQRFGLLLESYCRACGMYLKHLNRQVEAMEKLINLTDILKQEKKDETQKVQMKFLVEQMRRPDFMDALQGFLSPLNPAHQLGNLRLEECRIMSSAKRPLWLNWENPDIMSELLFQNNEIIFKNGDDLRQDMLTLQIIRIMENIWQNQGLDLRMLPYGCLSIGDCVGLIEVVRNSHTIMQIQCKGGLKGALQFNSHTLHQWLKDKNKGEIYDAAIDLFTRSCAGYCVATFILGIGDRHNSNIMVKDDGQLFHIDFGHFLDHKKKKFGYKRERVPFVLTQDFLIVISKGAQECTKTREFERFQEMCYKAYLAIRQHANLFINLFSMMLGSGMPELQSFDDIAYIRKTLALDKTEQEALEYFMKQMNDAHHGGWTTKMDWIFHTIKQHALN

Structure (SMILES) | % Ctrl, TNIK (panel of 442 kinases [1]) | KINOMEscan: MAP4K4 (panel of 442 kinases [2]) | KINOMEscan: PIM3 (panel of 442 kinases [3]) | KINOMEscan: PIK3CA (panel of 442 kinases [4])
COc1cc(C(=O)N2CCC(N3CCN(C)CC3)CC2)ccc1Nc1ncc2c(n1)N(C1CCCC1)c1ccccc1C(=O)N2C [Compound 25, 11-cyclopentyl-2-((2-methoxy-4-(4-(4-methylpiperazin-1-yl)piperidine-1-carbonyl)phenyl)amino)-5-methyl-5H-benzo[e]pyrimido[5,4-b][1,4]diazepin-6(11H)-one] | 100 % Ctrl | 98 | 78 | 100
COc1cc(C(=O)N2CCC(N3CCN(C)CC3)CC2)ccc1Nc1ncc2c(n1)N1CCc3cccc(c31)C(=O)N2C [Compound 24] | 56 % Ctrl | 35 | 67 | 
COc1cc(C(=O)N2CCC(N3CCN(C)CC3)CC2)ccc1Nc1ncc2c(n1)N(C)c1ccccc1C(=O)N2C [15 (LRRK2-IN-1)] | 100 % Ctrl | 85 | 88 | 74
CCOc1cc(C(=O)N2CCC(N3CCN(C)CC3)CC2)ccc1Nc1ncc2c(n1)N(C1CCCC1)c1ccccc1C(=O)N2C [Compound 26] | 94 % Ctrl | 96 | 100 | 100
